Measured values published in patent US20100113438A1, “CLASS OF HISTONE DEACETYLASE INHIBITORS” (DAC S.R.L., priority 2006, published 2010).

Assays:
[1] = Metabolic stability in hepatic microsomes (mouse); assay type: in vitro ADME; settings: mouse hepatic microsomes 0.5 mg/ml, compound 1 μM, 37° C., pH 7.4, 30 min
Protocol: (§1) The test compound was dissolved in DMSO at the final concentration of 1 μM and pre-incubated for 10 min at 37° C. in potassium phosphate buffer pH 7.4 together with mouse or human hepatic microsomes (Xenotech) at the final concentration of 0.5 mg/ml.
(§2) After the pre-incubation the reaction was started by adding the cofactor mixture (NADP, G6P, G6P-DH); aliquots were taken at time 0 and 30 min, added to acetonitrile in order to stop the reaction. After centrifugation the supernatant was separated and analyzed by LC-MS/MS.
(§3) A control sample without cofactor was always studied in parallel in order to check the chemical stability of the test compound.
(§4) Two reference compounds of known metabolic stability 7-ethoxycoumarin and propranolol were present each time to access the validity of the experiment.
(§5) A fixed concentration of verapamil was added in each sample as internal standard for the LC-MS/MS analysis.
(§6) The percentage of the compound remaining after 30 min incubation period was calculated according the following equation: [area at time 30 min]/[area at time 0 min]*100%.

[2] = Metabolic stability in hepatic microsomes (human); assay type: in vitro ADME; settings: human hepatic microsomes 0.5 mg/ml, compound 1 μM, 37° C., pH 7.4, 30 min
Protocol: as §1, §2, §3, §4, §5, §6

[3] = tested on: HDAC (nuclear extract of HeLa cells); assay: Assay of enzyme inhibition of HDAC (BIOMOL Kit); assay type: biochemical; settings: substrate 116 μM
Protocol: The in-vitro activity of HDAC inhibitors was assayed by means of a biochemical assay using a BIOMOL Kit, according to the recommended experimental conditions. […] The samples were incubated for 10 minutes at room temperature and then exposed to a developer (15 minutes at room temperature). In this last step a fluorophore was produced, whose fluorescence was measured using an excitation wavelength of 355 nm and an emission at 460 nm.

SMILES | Met. mouse (percentage of the compound remaining after 30 min incubation) [1] [%] | Met. human (percentage of the compound remaining after 30 min incubation) [2] [%] | IC50 [3] [nM]
CN1CCN(c2ccccc2C(=O)/C=C/c2ccc(/C=C/C(=O)NO)cc2)CC1 [Example 1, (E)-N-Hydroxy-3-(4-{(E)-3-[2-(4-methyl-piperazin-1-yl)-phenyl]-3-oxo-propenyl}-phenyl)-acrylamide] | 33.81 | 38.16 | –
CN(C)C1CCN(c2ccc(C(=O)/C=C/c3ccc(/C=C/C(=O)NO)cc3)cc2)CC1 [Example 4, (E)-3-(4-{(E)-3-[4-(4-Dimethylamino-piperidin-1-yl)-phenyl]-3-oxo-propenyl}-phenyl)-N-hydroxy-acrylamide] | 14.00 | 41.88 | –
CN1CCN(Cc2ccc(C(=O)/C=C/c3ccc(/C=C/C(=O)NO)cc3)cc2)CC1 [Example 7, (E)-N-Hydroxy-3-(4-{(E)-3-[4-(4-methyl-piperazin-1-yl-methyl)-phenyl]-3-oxo-propenyl}-phenyl)-acrylamide] | 16.75 | 61.16 | –
O=C(/C=C/c1ccc(/C=C/C(=O)c2ccc(N3CCNCC3)cc2)cc1)NO [Example 15, (E)-N-Hydroxy-3-{4-[(E)-3-(4-piperazin-1-yl-phenyl)-3-oxo-propenyl]-phenyl}-acrylamide] | 30.5 | 42.58 | –
CN1CCN(c2cc(Cl)cc(C(=O)/C=C/c3ccc(/C=C/C(=O)NO)cc3)c2)CC1 [Example 25, (E)-3-(4-{(E)-3-[3-Chloro-5-(4-methyl-piperazin-1-yl)-phenyl]-3-oxo-propenyl}-phenyl)-N-hydroxy-acrylamide] | 84.89 | 57.28 | 35
O=C(/C=C/c1ccc(/C=C/C(=O)c2ccc(CN3CCNCC3)cc2)cc1)NO [Example 26, (E)-N-Hydroxy-3-{4-[(E)-3-oxo-3-(4-piperazin-1-ylmethyl-phenyl)-propenyl]-phenyl}-acrylamide] | 42.41 | 50.84 | –
CC(=O)N1CCN(Cc2ccc(C(=O)/C=C/c3ccc(/C=C/C(=O)NO)cc3)cc2)CC1 [Example 30, (E)-3-(4-{(E)-3-[4-(4-Acetyl-piperazin-1-ylmethyl)-phenyl]-3-oxo-propenyl}-phenyl)-N-hydroxy-acrylamide] | – | – | 25
C[C@@H]1CN(c2ccc(C(=O)/C=C/c3ccc(/C=C/C(=O)NO)nc3)cc2)C[C@H](C)N1C [Example 39, (E)-N-Hydroxy-3-(5-{(E)-3-oxo-3-[4-((3R,5S)-3,4,5-trimethyl-piperazin-1-yl)-phenyl]-propenyl}-pyridin-2-yl)-acrylamide] | 20.29 | 44.35 | 6.1
CC(=O)N1CCN(c2ccc(C(=O)/C=C/c3ccc(/C=C/C(=O)NO)nc3)cc2)CC1 [Example 42, (E)-3-(5-{(E)-3-[4-(4-Acetyl-piperazin-1-yl)-phenyl]-3-oxo-propenyl}-pyridin-2-yl)-N-hydroxy-acrylamide] | 50.47 | 35.27 | 4.8
C[C@@H]1CN(c2cccc(C(=O)/C=C/c3ccc(/C=C/C(=O)NO)nc3)c2)C[C@H](C)N1C [Example 43, (E)-N-Hydroxy-3-(5-{(E)-3-oxo-3-[3-((3R,5S)-3,4,5-trimethyl-piperazin-1-yl)-phenyl]-propenyl}-pyridin-2-yl)-acrylamide] | 42.45 | 37.29 | 4
CN1CCC(Cc2ccc(C(=O)/C=C/c3ccc(/C=C/C(=O)NO)nc3)cc2)CC1 [Example 44, (E)-N-Hydroxy-3-(5-{(E)-3-[4-(1-methyl-piperidin-4-ylmethyl)-phenyl]-3-oxo-propenyl}-pyridin-2-yl)-acrylamide] | 54.56 | 34.38 | 1.3
O=C(/C=C/c1ccc(/C=C/C(=O)c2ccc(N3CCNCC3)cc2)cn1)NO [Example 45, (E)-N-Hydroxy-3-{5-[(E)-3-oxo-3-(4-piperazin-1-yl-phenyl)-propenyl]-pyridin-2-yl}-acrylamide] | 43.41 | 53.65 | 0.7
CN1CCN(Cc2ccccc2C(=O)/C=C/c2ccc(/C=C/C(=O)NO)nc2)CC1 [Example 47, (E)-N-Hydroxy-3-(5-{(E)-3-[2-(4-methyl-piperazin-1-ylmethyl)-phenyl]-3-oxo-propenyl}-pyridin-2-yl)-acrylamide] | 52.66 | 93.48 | –
O=C(/C=C/c1ccc(/C=C/C(=O)c2ccc(N3CCOCC3)cc2)c(F)c1)NO [Ref (*) 29, reference compound] | 11.17 | 20.86 | 282
O=C(/C=C/c1ccc(/C=C/C(=O)c2ccc(N3CCOCC3)cc2)cc1)NO [Ref (*) 41, reference compound] | 2.76 | 8.66 | 238
COc1cc(C(=O)/C=C/c2ccc(/C=C/C(=O)NO)cc2)ccc1CN1CCOCC1 [Ref (*) 48, reference compound] | 2.8 | 35.28 | –
CN1CCN(c2ccc(C(=O)/C=C/c3ccc(/C=C/C(=O)NO)cc3)cc2)CC1 [Ref (*) 59, reference compound] | 9.12 | 33.29 | –
O=C(/C=C/c1ccc(/C=C/C(=O)c2ccccc2)cn1)NO [Ref (*) 69, reference compound] | 5.65 | 13.74 | –
O=C(/C=C/c1ccc(/C=C/C(=O)c2cccs2)cn1)NO [Ref (*) 71, reference compound] | 6.04 | 21.82 | 67.5
O=C(/C=C/c1ccc(/C=C/C(=O)c2ccc(F)c(F)c2)cn1)NO [Ref (*) 72, reference compound] | 10.83 | 15.32 | 20
